Source: patent US7368440B2, “Methods for the administration of amifostine and related compounds” (Medimmune Oncology, Inc., priority 2001, dated 2008)
Read-outs that look alike come from different tables or passages of the source.

Details: human, in vivo
Description: The reconstituted solution was drawn up in a 10 mL syringe for administration.
This solution was divided into two syringes (1.25 mL per syringe) for administration.
During the infusion, the subjects were kept in a supine position. […] Moreover, all subjects were given a standard lunch at noon, a standard dinner at 6:00 PM and a standard snack at 10:00 PM.
This formulation was administered by gently squirting the solution in the back of the subject's throat. […] All subjects were given a standard lunch at noon, a standard dinner at 6:00 PM and a standard snack at 10:00 PM.
All subjects were given a standard lunch at noon, a standard dinner at 6:00 PM and a standard snack at 10:00 PM.
Non-compartmental modelling of the data was performed.

## NCCCNCCS [WR-1065, S-2-(3-Aminopropyl Amino) ethanethiol]
  Relative bioavailability Ratio PO/IV (Metabolite): 0.32
  Relative bioavailability Ratio SC/IV (Metabolite): 0.71
iv
  time at which WR-1065 concentration fell below 5 μM: approximately 45 minutes
sc
  time at which WR-1065 concentration fell below 5 μM: approximately 60 minutes
male, iv
  peak levels (maximum whole blood concentration): about 23 μM
  time within which whole blood concentrations peaked and declined rapidly: ≤ 10 min
male, sc
  maximum blood levels: ~4 µM
  time to maximum and sustained whole blood concentration: 15 to 45 min
